Experimental findings from the Kinase Knowledgebase extract (Sharma et al. 2016) are described below.

pIC50: −log10 of the molar value.

The assay deals with MAPK14 (human) (UniProt Q16539). The experiment in a line: Inhibition of MAPK14 Kinase Activity.
Sequence of MAPK14 (human) (Q16539 whole entry, looked up): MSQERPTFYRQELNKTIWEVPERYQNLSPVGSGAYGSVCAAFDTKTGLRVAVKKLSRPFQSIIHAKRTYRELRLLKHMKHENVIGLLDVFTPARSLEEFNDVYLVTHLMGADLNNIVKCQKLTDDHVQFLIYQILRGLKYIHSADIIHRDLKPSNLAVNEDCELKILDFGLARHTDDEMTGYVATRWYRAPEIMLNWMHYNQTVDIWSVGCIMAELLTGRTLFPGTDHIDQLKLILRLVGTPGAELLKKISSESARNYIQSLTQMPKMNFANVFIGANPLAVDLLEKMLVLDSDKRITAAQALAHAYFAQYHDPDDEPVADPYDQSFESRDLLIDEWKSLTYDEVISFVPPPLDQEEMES

`CN1CC[C@H](NC(=O)c2sc3c(ccc(=O)n3-c3ccccc3)c2Nc2ccc(F)cc2F)C1` showed a pIC50 of more than 6.00.

As for `Cc1cc(Nc2c(C(=O)C3CCNCC3)sc3c2ccc(=O)n3-c2ccccc2)ccc1F`, the pIC50 is more than 6.00.

In the case of `CN1CC[C@@H](NC(=O)c2sc3c(ccc(=O)n3-c3ccccc3)c2Nc2ccc(F)cc2F)C1`, the pIC50 is more than 6.00.

As to `O=C(c1sc2c(ccc(=O)n2-c2ccccc2)c1Nc1ccc(F)cc1F)C1CCNCC1`, the pIC50 is more than 6.00.

In turn, `O=C(NC1CCNC1)c1sc2c(ccc(=O)n2-c2ccccc2)c1Nc1ccc(F)cc1F` (stereo unspecified) gave a pIC50 of more than 6.00.

`O=C(N[C@@H]1CCNC1)c1sc2c(ccc(=O)n2-c2ccccc2)c1Nc1ccc(F)cc1F` showed a pIC50 of more than 6.00.

`Cc1cc(Nc2c(C(=O)NC3CNC3)sc3c2ccc(=O)n3-c2ccccc2)ccc1F`: the pIC50 is more than 6.00.

Regarding `O=C(NC1CCNCC1)c1sc2c(ccc(=O)n2-c2ccccc2)c1Nc1ccc(F)cc1F`, the pIC50 was more than 6.00.

On to `O=C(N[C@@H]1CCC[C@H]1O)c1sc2c(ccc(=O)n2-c2ccccc2)c1Nc1ccc(F)cc1F`, for which the pIC50 was more than 6.00.

Regarding `O=C(c1sc2c(ccc(=O)n2-c2ccccc2)c1Nc1ccccc1)C1CCNCC1`, the negative-log IC50 (pIC50) is more than 6.00.

As to `Cc1cccc(Nc2c(C(=O)C3CCNCC3)sc3c2ccc(=O)n3-c2ccccc2)n1`, the pIC50 is more than 6.00.

For the molecule `O=C(N[C@@H]1CCC[C@@H]1O)c1sc2c(ccc(=O)n2-c2ccccc2)c1Nc1ccc(F)cc1F`, the pIC50 is more than 6.00.

`Cc1cc(Nc2c(C(=O)C3CCN(C)CC3)sc3c2ccc(=O)n3-c2ccccc2)ccc1F`: the pIC50 is more than 6.00.

In the case of `O=C(N[C@H]1CCNC1)c1sc2c(ccc(=O)n2-c2ccccc2)c1Nc1ccc(F)cc1F`, the pIC50 was more than 6.00.

`CN1CCC(NC(=O)c2sc3c(ccc(=O)n3-c3ccccc3)c2Nc2ccc(F)cc2F)CC1` gave a pIC50 of more than 6.00.

In turn, `O=C(N[C@H]1CCC[C@@H]1O)c1sc2c(ccc(=O)n2-c2ccccc2)c1Nc1ccc(F)cc1F` had a pIC50 of more than 6.00.
